Data on 16 molecules can be found in US20240034731A1, “AZA-QUINAZOLINE COMPOUNDS AND METHODS OF USE” (Iambic Therapeutics, Inc., priority 2022, published 2024).

Each structure is given as a SMILES string.

One assay addresses CDK1/Cyclin B1 (Homo sapiens (Human), UniProt P06493). As to the kind of experiment: CDK1/Cyclin B1 ADP-Glo Kinase Assay. The conditions noted are these: ADP-Glo, 80 uM ATP; read-out: CDK1 Cyclin B1 IC50. The format is biochemical. An outline of the steps: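 ADP-Glo luminescent readout of ADP production, with IC50 fitted by a four-parameter equation to fractional velocity against inhibitor concentration. Reaction started with ATP-containing substrate after a 30-minute enzyme–inhibitor pre-incubation and stopped after 90 minutes, both at room temperature.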

Another assay deals with CDK2/Cyclin E1 (Homo sapiens (Human), UniProt P24941). The experiment in a line: CDK2/Cyclin E1 Full length ADP-Glo Kinase Assay. It counts as biochemical. The conditions noted are these: 20 uM ATP, read-out: CDK2/ CyclinE1 IC50. The method, boiled down: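 ADP-Glo luminescence (ATP depletion, then ADP-to-light conversion) quantified kinase turnover after a 90 min room-temperature reaction started by ATP/substrate, following 30 min enzyme–inhibitor preincubation. Enzyme: full-length CDK2/cyclin E1; IC50 fitted with a four-parameter equation on fractional velocity.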

The target of a further assay is CDK4/Cyclin D1 (Homo sapiens (Human), UniProt P11802). As to the kind of experiment: CDK4/Cyclin D1 CHEF Assay (AQT0258 peptide). The format is biochemical. As to conditions: 200 uM ATP, read-out: CDK4/ CyclinD1 AQT IC50. An outline of the steps:
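Sox-labelled peptide AQT0258 phosphorylation read as chelation-enhanced fluorescence (ex 360/em 485 nm) with Mg(II). Enzyme preincubated with inhibitor 30 min at 22°C, substrate added, 3 h at 22°C; IC50 from four-parameter fit of fractional velocity versus inhibitor concentration.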

The target of another assay is CDK6/Cyclin D3 (Homo sapiens (Human), UniProt Q00534). The experiment in a line: CDK6/Cyclin D3 ADP-Glo Kinase Assay. It counts as biochemical. As to conditions: 100 uM ATP, read-out: CDK6/ CyclinD3 IC50. The method, boiled down:
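ADP-Glo luminescence measured ADP produced by CDK6/Cyclin D3 in a 90-min room-temperature reaction started with ATP-containing substrate, after 30-min enzyme–inhibitor pre-incubation. Fractional velocity was plotted against inhibitor concentration and fitted to a four-parameter IC50 model.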
Background: In ADP-Glo the light output rises with the ADP produced.

For a further assay, the system named is MCF-7 cells. The experiment in a line: Cell Growth Inhibition, MCF-7 (CellTiterGlo, 6 days). It counts as cell-based. As to conditions: Homo sapiens, MCF7, 144 h, MCF-7, 6-day treatment. The method, boiled down:
(§1)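 IC50 from four-parameter, variable-slope fits of % growth inhibition, derived from CellTiterGlo 2.0 luminescence relative to control. Compounds, usually 10-10,000 nM in half-log steps, stayed 6 days at 37 °C, 5% CO2 with 500 MCF-7 or OVCAR-3 cells/well in 10% FBS RPMI.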
In general terms: ATP-based viability assays read luminescence as a measure of living cells.

For another assay, the system named is OVCAR-3 cells. The experiment in a line: Cell Growth Inhibition, OVCAR-3 (CellTiterGlo, 6 days). It counts as cell-based. The conditions noted are these: Homo sapiens, 144 h, OVCAR-3, 6-day treatment. The method, boiled down: as §1

Sequence of CDK1/Cyclin B1 (P06493 whole entry): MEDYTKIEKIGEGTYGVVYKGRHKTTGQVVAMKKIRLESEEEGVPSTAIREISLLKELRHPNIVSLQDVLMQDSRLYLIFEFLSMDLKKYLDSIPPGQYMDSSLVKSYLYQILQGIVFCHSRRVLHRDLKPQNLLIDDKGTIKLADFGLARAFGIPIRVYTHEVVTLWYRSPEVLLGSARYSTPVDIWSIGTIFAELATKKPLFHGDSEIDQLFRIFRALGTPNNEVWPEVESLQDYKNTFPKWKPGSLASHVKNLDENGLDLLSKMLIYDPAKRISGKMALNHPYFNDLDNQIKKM
Sequence of CDK1/Cyclin B1 (P14635 whole entry partner): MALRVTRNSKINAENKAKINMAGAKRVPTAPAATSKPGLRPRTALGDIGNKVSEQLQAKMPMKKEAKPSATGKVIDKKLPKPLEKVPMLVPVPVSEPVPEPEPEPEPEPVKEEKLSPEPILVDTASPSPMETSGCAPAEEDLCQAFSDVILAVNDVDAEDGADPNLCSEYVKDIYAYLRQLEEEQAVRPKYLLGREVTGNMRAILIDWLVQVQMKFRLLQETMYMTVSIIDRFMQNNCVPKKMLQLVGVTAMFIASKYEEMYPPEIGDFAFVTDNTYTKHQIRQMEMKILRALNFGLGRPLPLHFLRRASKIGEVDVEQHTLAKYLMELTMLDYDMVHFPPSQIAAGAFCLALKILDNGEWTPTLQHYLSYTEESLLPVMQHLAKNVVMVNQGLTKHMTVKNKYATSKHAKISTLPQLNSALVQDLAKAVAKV
Sequence of CDK6/Cyclin D3 (Q00534 whole entry): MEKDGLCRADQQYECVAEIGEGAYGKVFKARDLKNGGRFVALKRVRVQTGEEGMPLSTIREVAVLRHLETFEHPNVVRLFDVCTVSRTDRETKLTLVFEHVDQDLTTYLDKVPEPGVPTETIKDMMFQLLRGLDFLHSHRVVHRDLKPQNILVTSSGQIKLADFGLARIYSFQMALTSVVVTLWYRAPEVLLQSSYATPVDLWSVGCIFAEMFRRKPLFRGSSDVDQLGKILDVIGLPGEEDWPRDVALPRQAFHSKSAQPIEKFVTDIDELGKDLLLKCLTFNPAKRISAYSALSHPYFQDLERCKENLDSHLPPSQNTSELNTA
Sequence of CDK6/Cyclin D3 (P30281 whole entry partner): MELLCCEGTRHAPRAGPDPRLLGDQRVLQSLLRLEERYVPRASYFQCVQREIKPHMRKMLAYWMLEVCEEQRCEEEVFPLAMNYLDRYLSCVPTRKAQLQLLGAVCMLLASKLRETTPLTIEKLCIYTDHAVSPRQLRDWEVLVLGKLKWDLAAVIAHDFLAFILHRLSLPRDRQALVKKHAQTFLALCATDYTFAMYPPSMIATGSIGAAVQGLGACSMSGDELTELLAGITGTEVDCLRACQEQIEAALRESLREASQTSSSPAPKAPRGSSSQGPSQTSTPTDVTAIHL
Sequence of CDK4/Cyclin D1 (P11802 whole entry): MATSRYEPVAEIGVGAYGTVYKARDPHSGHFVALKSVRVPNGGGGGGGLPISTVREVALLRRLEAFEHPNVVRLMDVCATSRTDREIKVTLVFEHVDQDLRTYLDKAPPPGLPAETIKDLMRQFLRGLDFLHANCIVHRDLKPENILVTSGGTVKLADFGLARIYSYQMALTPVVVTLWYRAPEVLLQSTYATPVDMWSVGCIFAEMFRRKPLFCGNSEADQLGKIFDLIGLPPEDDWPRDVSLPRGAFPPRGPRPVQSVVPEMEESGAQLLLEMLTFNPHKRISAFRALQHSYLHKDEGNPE
Sequence of CDK4/Cyclin D1 (P24385 whole entry partner): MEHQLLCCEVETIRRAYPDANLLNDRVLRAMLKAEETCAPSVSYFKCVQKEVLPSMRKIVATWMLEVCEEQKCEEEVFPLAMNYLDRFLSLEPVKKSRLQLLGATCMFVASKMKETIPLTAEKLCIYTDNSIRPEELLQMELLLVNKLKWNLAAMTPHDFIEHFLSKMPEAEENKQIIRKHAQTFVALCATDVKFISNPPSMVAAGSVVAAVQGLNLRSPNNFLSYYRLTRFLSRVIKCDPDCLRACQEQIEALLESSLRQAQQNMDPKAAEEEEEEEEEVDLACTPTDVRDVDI

`Cc1cc2cnc(NC3CCN(S(=O)(=O)C4CC4)CC3)nc2c(N2CC(N3CC(F)C3)C2)n1` [Compound 72, N-(1-(cyclopropylsulfonyl)piperidin-4-yl)-8-(3-fluoro-[1,3′-biazetidin]-l′-yl)-6-methylpyrido[3,4-d]pyrimidin-2-amine]: the IC50 on CDK1/Cyclin B1 is 500 to 2000 nM; at CDK2/Cyclin E1, below 200 nM; on CDK4/Cyclin D1, 200 to 500 nM; on CDK6/Cyclin D3, 200 to 500 nM; with MCF-7 cells, above 2000 nM; in the assay with OVCAR-3 cells, above 2000 nM.
In the case of `Cc1cc2cnc(NC3CCN(S(C)(=O)=O)CC3)nc2c(N2CC3(CC(O)C3)C2)n1` [Compound 73, 2-(6-methyl-2-((1-(methylsulfonyl)piperidin-4-yl)amino)pyrido[3,4-d]pyrimidin-8-yl)-2-azaspiro[3.3]heptan-6-ol], the IC50 was 500 to 2000 nM on CDK1/Cyclin B1; below 200 nM on CDK2/Cyclin E1; below 200 nM on CDK4/Cyclin D1; 200 to 500 nM on CDK6/Cyclin D3; above 2000 nM in the assay with MCF-7 cells; above 2000 nM in the assay on OVCAR-3 cells.
Consider `Cc1cc2cnc(NC3CCN(S(=O)(=O)C4CC4)CC3)nc2c(N2CC(CS(C)(=O)=O)C2)n1` [Compound 74, N-(1-(cyclopropylsulfonyl)piperidin-4-yl)-6-methyl-8-(3-((methylsulfonyl)methyl)azetidin-1-yl)pyrido[3,4-d]pyrimidin-2-amine], for which the IC50 at CDK1/Cyclin B1 was 500 to 2000 nM; on CDK2/Cyclin E1, below 200 nM; on CDK4/Cyclin D1, 200 to 500 nM; on CDK6/Cyclin D3 it was 200 to 500 nM; in the assay with MCF-7 cells, above 2000 nM; in the assay with OVCAR-3 cells, above 2000 nM.
Turning to `COC1CC2(C1)CN(c1nc(C3CC3)cc3cnc(NC4CCN(S(C)(=O)=O)CC4)nc13)C2` [Compound 75, 6-cyclopropyl-8-(6-methoxy-2-azaspiro[3.3]heptan-2-yl)-N-(1-(methylsulfonyl)piperidin-4-yl)pyrido[3,4-d]pyrimidin-2-amine], the IC50 on CDK1/Cyclin B1 is above 2000 nM; on CDK2/Cyclin E1, below 200 nM; on CDK4/Cyclin D1 it was below 200 nM; on CDK6/Cyclin D3 it was below 200 nM; in the assay with MCF-7 cells, above 2000 nM; in the assay with OVCAR-3 cells it was above 2000 nM.
Regarding `COC1CC2(C1)CN(c1nc(C)cc3cnc(NC4CCN(S(C)(=O)=O)CC4)nc13)C2` [Compound 76, 8-(6-methoxy-2-azaspiro[3.3]heptan-2-yl)-6-methyl-N-(1-(methylsulfonyl)piperidin-4-yl)pyrido[3,4-d]pyrimidin-2-amine], the IC50 on CDK1/Cyclin B1 was 200 to 500 nM; at CDK2/Cyclin E1 it was below 200 nM; on CDK4/Cyclin D1, below 200 nM; at CDK6/Cyclin D3 it was below 200 nM; with MCF-7 cells, 500 to 2000 nM; in the assay on OVCAR-3 cells, above 2000 nM.
On to `Cc1cc2cnc(NC3CCN(S(C)(=O)=O)CC3)nc2c(N2CC3(CCC(=O)N3)C2)n1` [Compound 77, 2-(6-methyl-2-((1-(methylsulfonyl)piperidin-4-yl)amino)pyrido[3,4-d]pyrimidin-8-yl)-2,5-diazaspiro[3.4]octan-6-one], for which the IC50 was 200 to 500 nM on CDK1/Cyclin B1; below 200 nM on CDK2/Cyclin E1; below 200 nM at CDK4/Cyclin D1; below 200 nM at CDK6/Cyclin D3; above 2000 nM in the assay with MCF-7 cells; above 2000 nM in the assay with OVCAR-3 cells.
On to `Cc1cc2cnc(NC3CCN(S(=O)(=O)C4CC4)CC3)nc2c(N2CC3(C2)CC(C)(O)C3)n1` [Compound 78, 2-(2-((1-(cyclopropylsulfonyl)piperidin-4-yl)amino)-6-methylpyrido[3,4-d]pyrimidin-8-yl)-6-methyl-2-azaspiro[3.3]heptan-6-ol], for which the IC50 at CDK1/Cyclin B1 was 200 to 500 nM; on CDK2/Cyclin E1 it was below 200 nM; at CDK4/Cyclin D1, below 200 nM; at CDK6/Cyclin D3, 200 to 500 nM; with MCF-7 cells it was 500 to 2000 nM; in the assay on OVCAR-3 cells it was 500 to 2000 nM.
Consider `Cc1cc2cnc(NC3CCN(S(C)(=O)=O)CC3)nc2c(N2CC3(C2)CC(C)(O)C3)n1` [Compound 79, 6-methyl-2-(6-methyl-2-((1-(methylsulfonyl)piperidin-4-yl)amino)pyrido[3,4-d]pyrimidin-8-yl)-2-azaspiro[3.3]heptan-6-ol], for which the IC50 on CDK1/Cyclin B1 is 200 to 500 nM; at CDK2/Cyclin E1 it was below 200 nM; on CDK4/Cyclin D1, below 200 nM; on CDK6/Cyclin D3 it was 200 to 500 nM; with MCF-7 cells, above 2000 nM; in the assay on OVCAR-3 cells it was 500 to 2000 nM.
Consider `COCCN1CC2(CC(c3nc(C4CC4)cc4cnc(NC5CCN(S(=O)(=O)CC6CCC6)CC5)nc34)C2)C1` [Compound 80, N-(1-((cyclobutylmethyl)sulfonyl)piperidin-4-yl)-6-cyclopropyl-8-(2-(2-methoxyethyl)-2-azaspiro[3.3]heptan-6-yl)pyrido[3,4-d]pyrimidin-2-amine], for which the IC50 was 500 to 2000 nM on CDK1/Cyclin B1; below 200 nM at CDK2/Cyclin E1; below 200 nM on CDK4/Cyclin D1; below 200 nM on CDK6/Cyclin D3; above 2000 nM in the assay with MCF-7 cells; above 2000 nM with OVCAR-3 cells.
Turning to `Cc1cc2cnc(Nc3ccc(CS(C)(=O)=O)cc3)nc2c(N2CC(O)(C3CC3)C2)n1` [Compound 83, 3-cyclopropyl-1-(6-methyl-2-((4-((methylsulfonyl)methyl)phenyl)amino)pyrido[3,4-d]pyrimidin-8-yl)azetidin-3-ol], the IC50 on CDK1/Cyclin B1 was 200 to 500 nM; at CDK2/Cyclin E1 it was below 200 nM; on CDK4/Cyclin D1 it was below 200 nM; on CDK6/Cyclin D3 it was below 200 nM; in the assay with MCF-7 cells, above 2000 nM; in the assay with OVCAR-3 cells, above 2000 nM.
As for `Cc1cc2cnc(NC3CCN(S(C)(=O)=O)CC3)nc2c(C2CC3(C2)CN(C)CCO3)n1` (stereo not drawn) [Compound 84, 6-methyl-8-(8-methyl-5-oxa-8-azaspiro[3.5]nonan-2-yl)-N-(1-(methylsulfonyl)piperidin-4-yl)pyrido[3,4-d]pyrimidin-2-amine], the IC50 on CDK1/Cyclin B1 was 200 to 500 nM; at CDK2/Cyclin E1, below 200 nM; on CDK4/Cyclin D1, below 200 nM; on CDK6/Cyclin D3, below 200 nM; in the assay with MCF-7 cells, 500 to 2000 nM; in the assay on OVCAR-3 cells, 500 to 2000 nM.
`Cc1cc2cnc(NC3CCN(S(C)(=O)=O)CC3)nc2c(N2CC3(CNCC3(F)F)C2)n1` [Compound 85, 8-(8,8-difluoro-2,6-diazaspiro[3.4]octan-2-yl)-6-methyl-N-(1-(methylsulfonyl)piperidin-4-yl)pyrido[3,4-d]pyrimidin-2-amine]: the IC50 at CDK1/Cyclin B1 is below 200 nM; at CDK2/Cyclin E1, below 200 nM; on CDK4/Cyclin D1, below 200 nM; at CDK6/Cyclin D3, below 200 nM; with MCF-7 cells it was 500 to 2000 nM; with OVCAR-3 cells it was 500 to 2000 nM.
Consider `Cc1cc2cnc(N[C@@H]3CCOC[C@H]3O)nc2c(N2CC(O)(C3CC3)C2)n1` [Compound 86, 3-cyclopropyl-1-(2-(((3S,4R)-3-hydroxytetrahydro-2H-pyran-4-yl)amino)-6-methylpyrido[3,4-d]pyrimidin-8-yl)azetidin-3-ol], for which the IC50 on CDK1/Cyclin B1 was above 2000 nM; at CDK2/Cyclin E1 it was 200 to 500 nM; at CDK4/Cyclin D1, below 200 nM; on CDK6/Cyclin D3, 200 to 500 nM; in the assay with MCF-7 cells, above 2000 nM; in the assay with OVCAR-3 cells, above 2000 nM.
For `Cc1cc2cnc(NC3CCN(S(=O)(=O)c4cnn(C)c4)CC3)nc2c(N2CC3(CCNCC3(F)F)C2)n1` [Compound 87, 8-(5,5-difluoro-2,7-diazaspiro[3.5]nonan-2-yl)-6-methyl-N-(1-((1-methyl-1H-pyrazol-4-yl)sulfonyl)piperidin-4-yl)pyrido[3,4-d]pyrimidin-2-amine], the IC50 is below 200 nM at CDK1/Cyclin B1; below 200 nM at CDK2/Cyclin E1; below 200 nM on CDK4/Cyclin D1; below 200 nM on CDK6/Cyclin D3; 500 to 2000 nM in the assay on MCF-7 cells; 200 to 500 nM with OVCAR-3 cells.
On to `Cc1cc2cnc(NC3CCN(S(=O)(=O)c4cnn(C)c4)CC3)nc2c(N2CC(F)(F)C3(CNC3)C2)n1` [Compound 89, 8-(8,8-difluoro-2,6-diazaspiro[3.4]octan-6-yl)-6-methyl-N-(1-((1-methyl-1H-pyrazol-4-yl)sulfonyl)piperidin-4-yl)pyrido[3,4-d]pyrimidin-2-amine], for which the IC50 on CDK1/Cyclin B1 is below 200 nM; on CDK2/Cyclin E1 it was below 200 nM; on CDK4/Cyclin D1, below 200 nM; at CDK6/Cyclin D3 it was below 200 nM; in the assay with MCF-7 cells, 500 to 2000 nM; with OVCAR-3 cells it was 200 to 500 nM.
For the molecule `CS(=O)(=O)N1CCC(Nc2ncc3cc(C(F)F)nc(N4CC5(CCNCC5(F)F)C4)c3n2)CC1` [Compound 90, 8-(5,5-difluoro-2,7-diazaspiro[3.5]nonan-2-yl)-6-(difluoromethyl)-N-(1-(methylsulfonyl)piperidin-4-yl)pyrido[3,4-d]pyrimidin-2-amine], the IC50 at CDK1/Cyclin B1 was below 200 nM; at CDK2/Cyclin E1, below 200 nM; on CDK4/Cyclin D1, below 200 nM; at CDK6/Cyclin D3, below 200 nM; in the assay with MCF-7 cells, 500 to 2000 nM; in the assay on OVCAR-3 cells, 500 to 2000 nM.
